Legend:
[1] = test system: Aβ production; experiment: Cellular Aβ IC50 determination (Aβ40 sandwich ELISA); format: cell-based; conditions: Cricetulus griseus, Chinese hamster ovary cells over-expressing human APP695 with London and Swedish mutations, 24 h
Experimental: The potency of compounds against memapsin 2 activity was determined in a cellular assay of Aβ production. […] Chinese hamster ovary cells that over-express human APP695 with the London and Swedish mutations were seeded in multi-well plates at 10% confluency. Compounds were dissolved in DMSO to concentrations near 1 mM, and diluted into culture media to a final concentration near 4 μM (final 0.4% DMSO). Compounds were diluted serially and applied to cells in multi-well plates 48 h after seeding. Incubation was continued in 5% CO2 at 37 degrees C. for 24 h. Aliquots were removed and assayed for Aβ40 content using a sandwich ELISA (BioSource International). Amount of Aβ40 over the range of concentration of compounds, relative to control incubations, were fit to a 4-parameter IC50 model.

[2] = target: memapsin 2 (Homo sapiens, UniProt P56817); experiment: Inhibition of memapsin 2 beta-secretase activity toward fluorogenic substrate FS-2; format: biochemical; conditions: pH 4, 37° C., 20 minutes pre-incubation, substrate FS-2, tight-binding model; read-out: M2 Ki
Sequence of memapsin 2 (P56817 46-501): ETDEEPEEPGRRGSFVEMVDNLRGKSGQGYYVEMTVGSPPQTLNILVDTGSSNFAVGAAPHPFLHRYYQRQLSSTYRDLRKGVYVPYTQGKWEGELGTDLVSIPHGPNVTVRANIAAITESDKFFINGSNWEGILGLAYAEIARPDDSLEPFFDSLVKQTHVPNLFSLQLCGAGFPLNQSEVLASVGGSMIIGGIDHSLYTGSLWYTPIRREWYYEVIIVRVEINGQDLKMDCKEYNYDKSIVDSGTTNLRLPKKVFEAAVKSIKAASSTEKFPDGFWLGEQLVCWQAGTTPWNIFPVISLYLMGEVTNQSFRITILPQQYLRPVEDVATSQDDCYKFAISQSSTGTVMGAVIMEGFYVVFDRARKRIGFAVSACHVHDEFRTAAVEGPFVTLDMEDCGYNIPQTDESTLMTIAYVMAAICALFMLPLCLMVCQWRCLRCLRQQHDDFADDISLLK
Procedure, shortened: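 Enzyme pre-incubated with compound 20 min at pH 4, 37 °C, then fluorogenic substrate FS-2 added. Inhibition derived from rate of fluorescence increase from peptide hydrolysis.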

[3] = target: T1, memapsin 1 (Homo sapiens, UniProt Q9Y5Z0); experiment: Inhibition of memapsin 1 beta-secretase activity (substrate peptide […], MALDI-TOF); format: biochemical; conditions: pH 4.1, 37 degrees C., substrate NH3-ELDLAVEFWHDR-CO2, MALDI-TOF; read-out: M1 Ki
T1 sequence (Q9Y5Z0 63-518): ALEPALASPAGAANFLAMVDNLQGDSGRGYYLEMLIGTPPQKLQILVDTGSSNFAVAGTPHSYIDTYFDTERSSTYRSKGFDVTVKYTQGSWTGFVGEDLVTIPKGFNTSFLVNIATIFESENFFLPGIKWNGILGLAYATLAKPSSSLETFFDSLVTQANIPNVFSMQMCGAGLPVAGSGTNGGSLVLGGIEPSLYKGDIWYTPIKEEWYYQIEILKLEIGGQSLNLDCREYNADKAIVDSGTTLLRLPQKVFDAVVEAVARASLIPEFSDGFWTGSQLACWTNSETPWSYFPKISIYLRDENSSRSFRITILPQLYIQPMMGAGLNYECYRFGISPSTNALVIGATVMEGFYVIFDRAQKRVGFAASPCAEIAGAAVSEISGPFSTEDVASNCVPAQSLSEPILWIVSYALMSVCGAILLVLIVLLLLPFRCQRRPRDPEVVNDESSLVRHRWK

[4] = target: Cathepsin D (Homo sapiens, UniProt P07339); experiment: Inhibition of cathepsin D activity (substrate peptide […], MALDI-TOF); format: biochemical; conditions: pH 4.1, 37 degrees C., substrate NH3-[…]-CO2, MALDI-TOF; read-out: Cath D Ki
Sequence of Cathepsin D (P07339 65-412, species assumed): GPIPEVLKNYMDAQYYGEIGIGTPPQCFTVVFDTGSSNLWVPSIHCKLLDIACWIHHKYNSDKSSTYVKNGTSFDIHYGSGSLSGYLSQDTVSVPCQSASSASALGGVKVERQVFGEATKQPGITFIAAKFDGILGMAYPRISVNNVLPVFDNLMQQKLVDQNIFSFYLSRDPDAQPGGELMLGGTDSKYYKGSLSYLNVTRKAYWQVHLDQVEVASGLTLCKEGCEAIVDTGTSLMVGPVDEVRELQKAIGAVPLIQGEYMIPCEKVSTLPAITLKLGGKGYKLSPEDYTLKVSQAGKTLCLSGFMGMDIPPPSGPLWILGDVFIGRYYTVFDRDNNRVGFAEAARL

Row | SMILES | IC50 [1] | Ki [2] | Ki [3] | Ki [4]
1 | CSC[C@H](NC(=O)[C@@H](C)Cc1nc(C)cs1)C(=O)N[C@H](CC(C)C)[C@@H](O)C[C@@H](C)C(=O)N[C@@H](C(=O)NCC(C)C)C(C)C [Structure 64] | < 6000 nM | 100 to 1000 nM | 100 to 1000 nM | < 100 nM
2 | CCC(C)SC[C@H](NC(=O)OCc1nc(C)cs1)C(=O)N[C@H](CC(C)C)[C@@H](O)C[C@@H](C)C(=O)N[C@@H](C(=O)NCC(C)C)C(C)C (some centres unmarked) [Structure 66] | < 6000 nM | < 100 nM | 100 to 1000 nM | < 100 nM
3 | CCC(C)S(=O)(=O)C[C@H](NC(=O)OCc1nc(C)cs1)C(=O)N[C@H](CC(C)C)[C@@H](O)C[C@@H](C)C(=O)N[C@@H](C(=O)NCC(C)C)C(C)C (some centres unmarked) [Structure 67] | > 100000 nM | < 100 nM | 100 to 1000 nM | 100 to 1000 nM
4 | Cc1csc(COC(=O)N[C@@H](CS(C)(=O)=O)C(=O)N[C@H](CC(C)C)[C@@H](O)C[C@@H](C)C(=O)N[C@@H](C(=O)NCC(C)C)c2ccccc2)n1 [Structure 68] | 6000 to 100000 nM | < 100 nM | 100 to 1000 nM | 100 to 1000 nM
5 | CCc1nc(COC(=O)N[C@@H](CS(C)(=O)=O)C(=O)N[C@H](CC(C)C)[C@@H](O)C[C@@H](C)C(=O)N[C@@H](C(=O)NCC(C)C)C(C)C)c(C)s1 [Structure 71] | > 100000 nM | < 100 nM | 100 to 1000 nM | 100 to 1000 nM
6 | CCC(CC)SC[C@H](NC(=O)OCc1nc(C)cs1)C(=O)N[C@H](CC(C)C)[C@@H](O)C[C@@H](C)C(=O)N[C@@H](C(=O)NCC(C)C)C(C)C [Structure 72] | < 6000 nM | < 100 nM | 100 to 1000 nM | < 100 nM
7 | CCC(CC)S(=O)(=O)C[C@H](NC(=O)OCc1nc(C)cs1)C(=O)N[C@H](CC(C)C)[C@@H](O)C[C@@H](C)C(=O)N[C@@H](C(=O)NCC(C)C)C(C)C [Structure 73] | 6000 to 100000 nM | < 100 nM | 100 to 1000 nM | 100 to 1000 nM
8 | CCc1nc(COC(=O)N[C@@H](CS(C)(=O)=O)C(=O)N[C@H](CC(C)C)[C@@H](O)C[C@@H](C)C(=O)N[C@@H](C(=O)NCC(C)C)C(C)C)c(C)o1 [Structure 74] | < 6000 nM | < 100 nM | 100 to 1000 nM | 100 to 1000 nM
9 | CC[C@@H](Cc1nc(C)cs1)C(=O)N[C@@H](CSC)C(=O)N[C@H](CC(C)C)[C@@H](O)C[C@@H](C)C(=O)N[C@@H](C(=O)NCC(C)C)C(C)C [Structure 75] | < 6000 nM | < 100 nM | 100 to 1000 nM | < 100 nM
10 | CC[C@@H](Cc1nc(C)cs1)C(=O)N[C@@H](CS(C)(=O)=O)C(=O)N[C@H](CC(C)C)[C@@H](O)C[C@@H](C)C(=O)N[C@@H](C(=O)NCC(C)C)C(C)C [Structure 77] | < 6000 nM | < 100 nM | 100 to 1000 nM | < 100 nM
11 | Cc1nc(COC(=O)N[C@@H](CS(C)(=O)=O)C(=O)N[C@H](Cc2cc(F)cc(F)c2)[C@@H](O)C[C@@H](C)C(=O)N[C@@H](C(=O)NCC(C)C)C(C)C)c(C)o1 [Structure 78] | 6000 to 100000 nM | 100 to 1000 nM | < 100 nM | < 100 nM
12 | Cc1csc(COC(=O)N[C@@H](CS(C)(=O)=O)C(=O)N[C@H](Cc2cc(F)cc(F)c2)[C@@H](O)C[C@@H](C)C(=O)N[C@@H](C(=O)NCC(C)C)C(C)C)n1 [Structure 79] | < 6000 nM | < 100 nM | < 100 nM | < 100 nM
13 | Cc1nc(COC(=O)N[C@@H](CS(C)(=O)=O)C(=O)N[C@H](CC(C)C)[C@@H](O)C[C@@H](C)C(=O)N[C@@H](C(=O)O)C(C)C)c(C)o1 [Structure 86] | > 100000 nM | 100 to 1000 nM | 100 to 1000 nM | > 1000 nM
14 | COC(=O)[C@H](NC(=O)[C@H](C)C[C@H](O)[C@@H](CC(C)C)NC(=O)[C@H](CSC)NC(=O)OCc1nc(C)cs1)C(C)C [Structure 88] | < 6000 nM | > 1000 nM | > 1000 nM | 100 to 1000 nM
15 | CSC[C@H](NC(=O)OCc1ccn(C)n1)C(=O)N[C@H](CC(C)C)[C@@H](O)C[C@@H](C)C(=O)N[C@@H](C(=O)NCC(C)C)C(C)C [Structure 93] | 6000 to 100000 nM | 100 to 1000 nM | 100 to 1000 nM | < 100 nM
16 | Cc1nc(COC(=O)N[C@@H](CS(C)(=O)=O)C(=O)N[C@H](CC(C)C)[C@@H](O)C[C@@H](C)C(=O)N[C@@H](C(=O)NCC(C)C)C(C)C)c(C)o1 [Structure 94] | < 6000 nM | < 100 nM | 100 to 1000 nM | 100 to 1000 nM
17 | Cc1coc(COC(=O)N[C@@H](CS(C)(=O)=O)C(=O)N[C@@H](CC(C)C)[C@@H](O)C[C@@H](C)C(=O)N[C@H](C(=O)NCC(C)C)C(C)C)n1 [Structure 95] | < 6000 nM | < 100 nM | > 1000 nM | 100 to 1000 nM

From US7335632B2, “Beta-secretase inhibitors and methods of use thereof” (CoMentis, Inc., priority 2001, dated 2008)
